# Key:
# MDA-MB-231 = experiment: Cytotoxicity against human MDA-MB-231 cells assessed as reduction in cell viability incubated for 48 hrs; assay type: functional, cell-based; conditions: MDA-MB-231, 48 h
# A549 [1] = experiment: Cytotoxicity against human A549 cells assessed as reduction in cell viability incubated for 48 hrs; assay type: functional, cell-based; conditions: A549, 48 h
# HT-1080 [2] = experiment: Cytotoxicity against human HT-1080 cells assessed as reduction in cell viability incubated for 48 hrs; assay type: functional, cell-based; conditions: HT-1080, 48 h
# MCF7 = experiment: Cytotoxicity against human MCF7 cells assessed as reduction in cell viability incubated for 48 hrs; assay type: functional, cell-based; conditions: MCF7, 48 h
# A-375 [3] = experiment: Cytotoxicity against human A-375 cells assessed as cell viability at 10 uM incubated for 48 hrs (reference value: 100 %); assay type: functional; conditions: read-out: Activity
# A-375 [4] = experiment: Cytotoxicity against human A-375 cells assessed as cell viability at 5 uM incubated for 48 hrs (reference value: 100 %); assay type: functional; conditions: read-out: Activity
# HT-1080 [5] = experiment: Induction of mitochondrial membrane potential dysfunction in human HT-1080 cells assessed as depolarized dead cells at 5 uM incubated for 24 hrs by flow cytometry analysis (reference value: 0.0 %); assay type: functional
# [6] = target: T1, Caspase-3/Caspase-7 (Homo sapiens) (UniProt P42574+P55210); experiment: Induction of caspase 3/7 proteolytic activity in human HT-1080 cells assessed as induction of apoptosis by measuring dead cells at 5 uM incubated for 24 hrs by flow cytometry analysis (reference value: 2.15 %); assay type: cell-based
# [7] = Induction of caspase 3/7 proteolytic activity in human HT-1080 cells assessed as induction of apoptosis at 5 uM incubated for 24 hrs by flow cytometry analysis relative to control; assay type: functional
# HT-1080 [8] = experiment: Induction of cell cycle arrest in human HT-1080 cells assessed as S phase at 5 uM incubated for 24 hrs by flow cytometry analysis (reference value: 10.3 %); assay type: functional
# HT-1080 [9] = experiment: Induction of apoptosis in human HT-1080 cells assessed as viable cells at 5 uM incubated for 24 hrs by AnnexinV-FITC/7-AAD double staining based analysis (reference value: 97.92 %); assay type: functional; conditions: read-out: Activity
# A549 [10] = experiment: Induction of apoptosis in human A549 cells assessed as early apoptotic cells at 5 uM incubated for 24 hrs by AnnexinV-FITC/7-AAD double staining based analysis relative to control; assay type: functional
# HT-1080 [11] = experiment: Induction of cell cycle arrest in human HT-1080 cells assessed as G2/M phase at 5 uM incubated for 24 hrs by flow cytometry analysis (reference value: 25.6 %); assay type: functional
# HT-1080 [12] = experiment: Induction of apoptosis in human HT-1080 cells at 5 uM incubated for 24 hrs by AnnexinV-FITC/7-AAD double staining based analysis (reference value: 1.34%); assay type: functional
# A549 [13] = experiment: Induction of apoptosis in human A549 cells assessed as viable cells at 5 uM incubated for 24 hrs by AnnexinV-FITC/7-AAD double staining based analysis (reference value: 89.88 %); assay type: functional; conditions: read-out: Activity
# HT-1080 [14] = experiment: Induction of mitochondrial membrane potential dysfunction in human HT-1080 cells assessed as dead cells at 5 uM incubated for 24 hrs by flow cytometry analysis (reference value: 7.61 %); assay type: functional
# A549 [15] = experiment: Induction of cell cycle arrest in human A549 cells assessed as G2/M phase at 5 uM incubated for 24 hrs by flow cytometry analysis (reference value: 11.6 %); assay type: functional
# [16] = target: T1, Caspase-3/Caspase-7 (Homo sapiens); experiment: Induction of caspase 3/7 proteolytic activity in human A549 cells assessed as induction of apoptosis by measuring dead cells at 5 uM incubated for 24 hrs by flow cytometry analysis (reference value: 2.90 %); assay type: cell-based
# HT-1080 [17] = experiment: Induction of mitochondrial membrane potential dysfunction in human HT-1080 cells assessed as viable cells at 5 uM incubated for 24 hrs by flow cytometry analysis (reference value: 90.10 %); assay type: functional; conditions: read-out: Activity
# A549 [18] = experiment: Induction of mitochondrial membrane potential dysfunction in human A549 cells assessed as viable cells at 5 uM incubated for 24 hrs by flow cytometry analysis (reference value: 86.64 to 88.54 %); assay type: functional; conditions: read-out: Activity
# A549 [19] = experiment: Induction of mitochondrial membrane potential dysfunction in human A549 cells assessed as depolarized live cells at 5 uM incubated for 24 hrs by flow cytometry analysis (reference value: 1.16 %); assay type: functional
# HT-1080 [20] = experiment: Induction of apoptosis in human HT-1080 cells assessed as early apoptotic cells at 5 uM incubated for 24 hrs by AnnexinV-FITC/7-AAD double staining based analysis relative to control; assay type: functional
# A549 [21] = experiment: Induction of cell cycle arrest in human A549 cells assessed as S phase at 5 uM incubated for 24 hrs by flow cytometry analysis (reference value: 9.6 %); assay type: functional
# [22] = target: T1, Caspase-3/Caspase-7 (Homo sapiens); experiment: Induction of caspase 3/7 proteolytic activity in human HT-1080 cells assessed as induction of apoptosis by measuring viable cells at 5 uM incubated for 24 hrs by flow cytometry analysis (reference value: 91.39 %); assay type: cell-based; conditions: filed as activator
# A549 [23] = experiment: Induction of apoptosis in human A549 cells assessed as necrotic cells at 5 uM incubated for 24 hrs by AnnexinV-FITC/7-AAD double staining based analysis (reference value: 1.04 %); assay type: functional
# HT-1080 [24] = experiment: Induction of apoptosis in human HT-1080 cells assessed as late apoptotic cells at 5 uM incubated for 24 hrs by AnnexinV-FITC/7-AAD double staining based analysis (reference value: 0.12 %); assay type: functional
# [25] = target: T1, Caspase-3/Caspase-7 (Homo sapiens); experiment: Induction of caspase 3/7 proteolytic activity in human A549 cells assessed as induction of apoptosis by measuring apoptotic/dead cells at 5 uM incubated for 24 hrs by flow cytometry analysis (reference value: 5.65 %); assay type: cell-based
# [26] = target: T1, Caspase-3/Caspase-7 (Homo sapiens); experiment: Induction of caspase 3/7 proteolytic activity in human HT-1080 cells assessed as induction of apoptosis by measuring apoptotic/dead cells at 5 uM incubated for 24 hrs by flow cytometry analysis (reference value: 4.97 %); assay type: cell-based
# HT-1080 [27] = experiment: Induction of mitochondrial membrane potential dysfunction in human HT-1080 cells assessed as depolarized live cells at 5 uM incubated for 24 hrs by flow cytometry analysis (reference value: 2.28 %); assay type: functional
# HT-1080 [28] = experiment: Induction of apoptosis in human HT-1080 cells assessed as necrotic cells at 5 uM incubated for 24 hrs by AnnexinV-FITC/7-AAD double staining based analysis (reference value: 0.73 %); assay type: functional
# HT-1080 [29] = experiment: Induction of apoptosis in human HT-1080 cells at 5 uM incubated for 24 hrs by AnnexinV-FITC/7-AAD double staining based analysis relative to control; assay type: functional
# [30] = target: T1, Caspase-3/Caspase-7 (Homo sapiens); experiment: Induction of caspase 3/7 proteolytic activity in human HT-1080 cells assessed as induction of apoptosis by measuring apoptotic cells at 5 uM incubated for 24 hrs by flow cytometry analysis (reference value: 1.48 %); assay type: cell-based
# A549 [31] = experiment: Induction of mitochondrial membrane potential dysfunction in human A549 cells assessed as dead cells at 5 uM incubated for 24 hrs by flow cytometry analysis (reference value: 9.92 %); assay type: functional
# [32] = target: T1, Caspase-3/Caspase-7 (Homo sapiens); experiment: Induction of caspase 3/7 proteolytic activity in human A549 cells assessed as induction of apoptosis by measuring apoptotic cells at 5 uM incubated for 24 hrs by flow cytometry analysis (reference value: 2.54 %); assay type: cell-based
# A549 [33] = experiment: Induction of apoptosis in human A549 cells at 5 uM incubated for 24 hrs by AnnexinV-FITC/7-AAD double staining based analysis relative to control; assay type: functional
# [34] = target: T1, Caspase-3/Caspase-7 (Homo sapiens); experiment: Induction of caspase 3/7 proteolytic activity in human A549 cells assessed as induction of apoptosis by measuring viable cells at 5 uM incubated for 24 hrs by flow cytometry analysis (reference value: 88.91 %); assay type: cell-based; conditions: filed as activator
# HT-1080 [35] = experiment: Induction of apoptosis in human HT-1080 cells assessed as early apoptotic cells at 5 uM incubated for 24 hrs by AnnexinV-FITC/7-AAD double staining based analysis (reference value: 1.22 %); assay type: functional
# A549 [36] = experiment: Induction of apoptosis in human A549 cells assessed as late apoptotic cells at 5 uM incubated for 24 hrs by AnnexinV-FITC/7-AAD double staining based analysis (reference value: 3.01 %); assay type: functional
# A549 [37] = experiment: Induction of apoptosis in human A549 cells at 5 uM incubated for 24 hrs by AnnexinV-FITC/7-AAD double staining based analysis (reference value: 9.08%); assay type: functional
# HT-1080 [38] = experiment: Induction of cell cycle arrest in human HT-1080 cells assessed as G0/G1 phase at 5 uM incubated for 24 hrs by flow cytometry analysis (reference value: 63 %); assay type: functional
# [39] = Induction of caspase 3/7 proteolytic activity in human A549 cells assessed as induction of apoptosis at 5 uM incubated for 24 hrs by flow cytometry analysis relative to control; assay type: functional
# A549 [40] = experiment: Induction of cell cycle arrest in human A549 cells assessed as G0/G1 phase at 5 uM incubated for 24 hrs by flow cytometry analysis (reference value: 73.5 %); assay type: functional
# A549 [41] = experiment: Induction of mitochondrial membrane potential dysfunction in human A549 cells assessed as depolarized dead cells at 5 uM incubated for 24 hrs by flow cytometry analysis (reference value: 0.39 %); assay type: functional
# A549 [42] = experiment: Induction of apoptosis in human A549 cells assessed as early apoptotic cells at 5 uM incubated for 24 hrs by AnnexinV-FITC/7-AAD double staining based analysis (reference value: 6.07 %); assay type: functional
# T1 sequence (P42574 whole entry, looked up): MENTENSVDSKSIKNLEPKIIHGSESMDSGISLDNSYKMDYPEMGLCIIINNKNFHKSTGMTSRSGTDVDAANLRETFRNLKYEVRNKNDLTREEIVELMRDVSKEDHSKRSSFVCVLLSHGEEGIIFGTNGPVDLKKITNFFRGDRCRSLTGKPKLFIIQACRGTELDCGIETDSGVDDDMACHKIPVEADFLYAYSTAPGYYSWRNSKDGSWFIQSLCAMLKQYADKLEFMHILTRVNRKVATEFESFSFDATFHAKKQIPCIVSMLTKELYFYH
# T1 sequence (P55210 whole entry, looked up): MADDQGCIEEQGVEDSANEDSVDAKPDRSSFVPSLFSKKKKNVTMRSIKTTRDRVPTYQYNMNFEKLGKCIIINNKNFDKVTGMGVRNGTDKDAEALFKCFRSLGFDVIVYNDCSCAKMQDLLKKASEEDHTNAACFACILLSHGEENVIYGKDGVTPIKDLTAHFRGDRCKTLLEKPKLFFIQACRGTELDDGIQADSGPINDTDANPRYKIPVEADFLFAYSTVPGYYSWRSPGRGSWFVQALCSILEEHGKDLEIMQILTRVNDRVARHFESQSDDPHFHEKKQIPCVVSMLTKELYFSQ
smiles,measurement,setting,value
COc1cccc2c1C(=O)c1c(O)c3c(c(O)c1C2=O)C[C@@](O)(C(=O)CO)C[C@@H]3O[C@H]1C[C@H](N)[C@H](O)[C@H](C)O1 [DOXORUBICIN],IC50,MDA-MB-231,3.41 µM
same,IC50,A549 [1],2.67 µM
same,IC50,HT-1080 [2],0.93 µM
same,IC50,MCF7,1.83 µM
O=c1ccn(Cc2ccc(-c3noc(-c4ccc(-c5ccccc5)cc4)n3)cc2)c(=O)[nH]1,viability at 10 µM,A-375 [3],82%
same,viability at 5 µM,A-375 [4],85%
COc1ccc(-c2nc(-c3ccc(Cn4cc(F)c(=O)[nH]c4=O)cc3)no2)cc1,viability at 10 µM,A-375 [3],82%
same,viability at 5 µM,A-375 [4],50%
O=c1ccn(Cc2ccc(-c3noc(-c4ccccc4)n3)cc2)c(=O)[nH]1,viability at 10 µM,A-375 [3],72%
same,viability at 5 µM,A-375 [4],76%
COc1ccc(-c2ccc(-c3nc(-c4ccc(Cn5cc(F)c(=O)[nH]c5=O)cc4)no3)cc2)cc1,IC50,MDA-MB-231,6.52 µM
same,IC50,A549 [1],4.02 µM
same,IC50,HT-1080 [2],0.98 µM
same,viability at 10 µM,A-375 [3],23%
same,viability at 5 µM,A-375 [4],29%
same,IC50,MCF7,0.89 µM
COc1ccc(-c2ccc(-c3nc(-c4ccc(Cn5ncc(=O)[nH]c5=O)cc4)no3)cc2)cc1,viability at 10 µM,A-375 [3],44%
same,viability at 5 µM,A-375 [4],76%
O=c1cnn(Cc2ccc(-c3noc(-c4ccccc4)n3)cc2)c(=O)[nH]1,viability at 10 µM,A-375 [3],62%
same,viability at 5 µM,A-375 [4],100%
COc1ccc(-c2nc(-c3ccc(Cn4ccc(=O)[nH]c4=O)cc3)no2)cc1,viability at 10 µM,A-375 [3],55%
same,viability at 5 µM,A-375 [4],59%
O=c1[nH]c(=O)n(Cc2ccc(-c3noc(-c4ccc(-c5ccccc5)cc4)n3)cc2)cc1F,IC50,MDA-MB-231,8.37 µM
same,IC50,A549 [1],3.12 µM
same,Activity,HT-1080 [5],0%
same,Activity,[6],9.15%
same,fold change (FC),[7],3
same,Activity,HT-1080 [8],13.9%
same,viability at 5 µM,HT-1080 [9],84.7%
same,fold change (FC),A549 [10],1.5
same,Activity,HT-1080 [11],24.1%
same,Activity,HT-1080 [12],13.81%
same,viability at 5 µM,A549 [13],72.7%
same,Activity,HT-1080 [14],16.96%
same,Activity,A549 [15],11.5%
same,Activity,[16],6.64%
same,viability at 5 µM,HT-1080 [17],78.7%
same,IC50,HT-1080 [2],0.88 µM
same,viability at 5 µM,A549 [18],78%
same,Activity,A549 [19],1.03%
same,fold change (FC),HT-1080 [20],3.5
same,Activity,A549 [21],12%
same,Activity,[22],68.6%
same,Activity,A549 [23],3.26%
same,viability at 10 µM,A-375 [3],17%
same,Activity,HT-1080 [24],9.56%
same,Activity,[25],25.8%
same,Activity,[26],19.4%
same,Activity,HT-1080 [27],3.61%
same,Activity,HT-1080 [28],1.49%
same,fold change (FC),HT-1080 [29],10
same,viability at 5 µM,A-375 [4],29%
same,Activity,[30],2.87%
same,Activity,A549 [31],20.29%
same,Activity,[32],3.25%
same,fold change (FC),A549 [33],3
same,Activity,[34],64.3%
same,Activity,HT-1080 [35],4.25%
same,Activity,A549 [36],14.72%
same,Activity,A549 [37],29.01%
same,Activity,HT-1080 [38],59.9%
same,fold change (FC),[39],3
same,Activity,A549 [40],71.8%
same,Activity,A549 [41],0.63%
same,Activity,A549 [42],9.29%
same,IC50,MCF7,1.19 µM
COc1ccc(-c2nc(-c3ccc(Cn4ncc(=O)[nH]c4=O)cc3)no2)cc1,viability at 10 µM,A-375 [3],55%
same,viability at 5 µM,A-375 [4],53%
O=c1[nH]c(=O)n(Cc2ccc(-c3noc(-c4ccccc4)n3)cc2)cc1F,viability at 10 µM,A-375 [3],30%
same,viability at 5 µM,A-375 [4],56%
N/C(=N\O)c1ccc(Cn2ncc(=O)[nH]c2=O)cc1,viability at 10 µM,A-375 [3],94%
same,viability at 5 µM,A-375 [4],100%
